Positions count from the first letter of the chain named. Names may count otherwise.
B1: PlGF: VEGFR-1 selective ligand (protein, UniProt P49763 19-221, looked up)
Placenta growth factor: LPAVPPQQWALSAGNGSSEVEVVPFQEVWGRSYCRALERLVDVVSEYPSEVEHMFSPSCVSLLRCTGCCGDENLHCVPVETANVTMQLLKIRSGDRPSYVELTFSQHVRCECRHSPGRQSPDMPGDFRADAPSFLPPRRSLPMLFRMEWGCALTGSQSAVWPSSPVPEEIPRMHPGRNGKKQQRKPLREKMKPERCGDAVPRR
B2: VEGFR2-sel: KDR-selective VEGF mutant: VEGF D63S/G65M/L66R (protein)
chain: APMAEGGGQNHHEVVKFMDVYQRSYCHPIETLVDIFQEYPDEIEYIFKPSCVPLMRCGGCCNSEMRECVPTEESNITMQIMRIKPHQGQHIGEMSFLQHNKCECRPKKDRARQENPCGPCSERRKHLFVQDPQTCKCSCKNTDSRCKARQLELNERTCRCDKPRR
B3: VEGFR1-sel: Flt-selective VEGF mutant I43A/I46A/Q79A/I83 (protein)
chain: B2 chain with I43A, I46A, S63D, M65G, R66L, Q79A

Legend:
Type in all cases: cell-based, human
NFAT = NFAT luciferase reporter gene assay in endothelial cells
Description: For HUVEC and human microvascular endothelial cell (HMVECs) transient transfections, cells (7.5×104) were plated per well of a 6-well dish in 3 mL growth medium (Primaria; BD Biosciences, Bedford, Mass.). The amounts of plasmid DNA used in the lipofection mixture were calculated for transfection of the total of 3 wells. Then, 1.25 μg expression vector, 3.75 μg luciferase reporter, and 2.0 μg SV-Renilla reference reporters were mixed and 14 μL F1 lipofectin reagent (Targeting Systems, Santee, Calif.) was added. Then, 4.5 mL high-glucose Dulbecco modified Eagle medium (DMEM) was added to the mixture. Transient transfection was conducted as recommended by the manufacturer. For reporter gene expression experiments, cells were lysed by using the Dual Luciferase Reporter Kit (Promega, San Luis Obispo, Calif.) in 300 μL of 1×passive lysis buffer following the recommendations of the manufacturer.
For transient transfection experiments including siRNA, HUVECs were plated in 6-well plates as described for transient transfection experiments. For 6 replicas, 600 pmol siRNA (Dharmacon, Lafayette, Colo.), 7.5 μg luciferase, and 4 μg Renilla reporter construct were mixed in 6 mL high-glucose DMEM. For FACS and immunohistochemical (IHC) experiments, 11.5 μg enhanced green fluorescent protein (EGFP) plasmid was added instead of the luciferase plasmid. […]

DSCR1 [1] = assay: Western blot of DSCR1 after siRNA transfection of HUVECs
Description: Cells cultured in 10-cm dishes were washed twice in Tris (tris(hydroxymethyl)aminomethane)-buffered saline, and 0.6 mL RIPA buffer (10 mM PBS, 1% Nonidet P-40, 0.5% sodium deoxycholate, 0.1% sodium dodecyl sulfate [SDS], […] phenylmethylsulfonyl fluoride, 30 μg/mL aprotinin, 1 mM sodium orthovanadate), and protease inhibitors (Roche Pharmaceuticals, Gaithersburg, Md.) were added. Mouse monoclonal antibody (mAb) directed against human NFATc 1, c2, and c3 was purchased from Santa Cruz Biotechnology (Santa Cruz, Calif.). Affinity-purified goat polyclonal antibody against human E-selectin, vascular cell adhesion molecule-1 (VCAM-1), intercellular adhesion molecule-1 (ICAM-1), and Cox-2 was from BD Pharmingen. Total endothelial cell extract, polyacrylamide gel electrophoresis (PAGE), blotting, and immunodetection were performed according to the Santa Cruz Biotechnology protocol. A total of […] whole-cell extract was loaded on each lane of a 4% to 16% polyacrylamide gel. […] Cox-2 was analyzed with an anti-Cox2 mAb (RDI, 1:500) and TF with an anti-hTF mAb (clone 7G11) was generated at Genentech, and used at a 1:500 dilution. Before loading the samples on the gel, the protein amounts were quantified and adjusted accordingly. […]

[2] = test system: TF, VCAM-1, E-selectin, ICAM-1; assay: FACS analysis of inflammatory markers on GFP+ siRNA-transfected HUVECs
Description: For transient transfection experiments including siRNA, HUVECs were plated in 6-well plates as described for transient transfection experiments. For 6 replicas, 600 pmol siRNA (Dharmacon, Lafayette, Colo.), 7.5 μg luciferase, and 4 μg Renilla reporter construct were mixed in 6 mL high-glucose DMEM. For FACS and immunohistochemical (IHC) experiments, 11.5 μg enhanced green fluorescent protein (EGFP) plasmid was added instead of the luciferase plasmid. Prior to incubation at 37° C. for 25 to 30 minutes, 30 μL Targefect solution A and 60 μL Targefect solution B (Targeting Systems) were added to the mixture; 1 mL of this solution was used for lipofection as described. Cells were washed twice with PBS prior to addition of serum-free medium and dosing for the indicated amount of time.

DSCR1 [3] = assay: DSCR1 expression analysis by real-time RT-PCR (TaqMan) in HUVECs; details: for DSCR1 mRNA levels: HUVECs, after 5.5 hours; for DSCR1 expression levels (real-time RT-PCR): serum-starved HUVECs, over 36 hours
Description: (§1) Cells and cell assays. Primary human endothelial cells were purchased from Clonetics (Santa Rosa, Calif.) and cultured according to the manufacturer's instructions. For gene calling experiments, human umbilical vein endothelial cells (HUVECs) were purchased from Clonetics (BioWhittaker, Walkersville, Md.) and maintained in endothelial growth medium (EBM-2) complemented with 5% fetal calf serum (FCS) following the manufacturer's instructions. Cells (1×107) were split at a cell density of 19 000 cell/cm2 and triplicate experiments for each condition were run in parallel. Twenty-four hours after plating the cells, cell were washed 3 times with phosphate-buffered saline (PBS) and media (Clonetics) containing either 0.1% bovine serum albumin (BSA) or 0.1% BSA plus VEGF (30 ng/mL) or 5% FCS. RNA isolation and reverse transcription-PCR (RT-PCR) analysis was performed as described.^21 For cell culture experiments, the following conditions were used: human (h) VEGF, 30 ng/mL; hTNF-α, 10 ng/mL; PMA, 200 ng/mL (Calbiochem, LaJolla, Calif.); CsA, 1 μM (Calbiochem); IO 5 μM (Sigma, St Louis, Mo.); thapsigargin, 50 nM (Sigma). In one instance inhibiting (si) RNAs were generated by Dharmacon (Lafayette, Colo.) based on the full-length cDNAs of the respective gene and using the “Smart-pool” service (Dharmacon, Lafayette, Colo.). For adenoviral transduction survival experiments, human umbilical vein endothelial cells (HUVECs) were maintained in endothelial growth medium (EBM-2) complemented with 5% FCS following the manufacturer's instructions. 3×10^5 cells were split per well of a 6 well plate (Primaria, BD Biosciences, Bedford, Mass.) and duplicate experiments for each condition were run in parallel. Cells were infected with adenovirus (MOI=100) encoding for a gD peptide (Ad-Control), DSCR1 (Ad-DSCR1) or an antisense construct with the coding sequence inverted (Ad-DSCR1-AS) for 2 h in serum free media containing 10 mM […] and 10 nM MgCl2 on a vertical shaker at room temperature. Thereafter, 5 times the volume of regular growth medium containing 5% FCS was added and cells were kept for 1 day in a CO2 incubator. Thereafter, cells were washed three times with PBS and basal media (Clonetics, Santa Rosa, Calif.) containing 0.1 % BSA was added and PMA/IO, H202, and ZVAD as indicated. 24 hours after serum starvation and dosing, cell were counted on a Coulter brand style cell counter. For cell culture experiments, the following conditions were used: PMA: 200 ng/ml (Calbiochem, LaJolla, Calif.), Ionomycine: 5 μM (Sigma, St. Louis, Mo.), a 3% H202 solution was diluted 1:300 in basal media, 0.1% BSA to result in a 0.01% H202 solution, ZVAD 5 μM.

DSCR1 [4] = assay: Western blot of DSCR1 protein in whole cell extracts of HUVECs; details: 6 hours of stimulation
Description: Cells cultured in 10-cm dishes were washed twice in Tris (tris(hydroxymethyl)aminomethane)-buffered saline, and 0.6 mL RIPA buffer (10 mM PBS, 1% Nonidet P-40, 0.5% sodium deoxycholate, 0.1% sodium dodecyl sulfate [SDS], […] phenylmethylsulfonyl fluoride, 30 μg/mL aprotinin, 1 mM sodium orthovanadate), and protease inhibitors (Roche Pharmaceuticals, Gaithersburg, Md.) were added. Mouse monoclonal antibody (mAb) directed against human NFATc 1, c2, and c3 was purchased from Santa Cruz Biotechnology (Santa Cruz, Calif.). Affinity-purified goat polyclonal antibody against human E-selectin, vascular cell adhesion molecule-1 (VCAM-1), intercellular adhesion molecule-1 (ICAM-1), and Cox-2 was from BD Pharmingen. Total endothelial cell extract, polyacrylamide gel electrophoresis (PAGE), blotting, and immunodetection were performed according to the Santa Cruz Biotechnology protocol. A total of […] whole-cell extract was loaded on each lane of a 4% to 16% polyacrylamide gel. The enhanced chemiluminescence (ECL) reaction kit was purchased from Amersham Pharmacia Biotech (Piscataway, N.J.), and horseradish peroxidase streptavidin from Vector Laboratories (Burlingame, Calif.) was used. For NFATc1 experiments, equal amounts of cell extract were loaded to visualize NFATc1 (mAb 7A6; 1:500; Santa Cruz Biotechnology) and the loading control α-tubulin (mAb from ICN, Santa Ana, Calif.; 1:5000). For Cox-2 and TF immunoblot analysis equal amounts of cell lysate were loaded on a 6% to 12% gradient SDS-PAGE. Cox-2 was analyzed with an anti-Cox2 mAb (RDI, 1:500) and TF with an anti-hTF mAb (clone 7G11) was generated at Genentech, and used at a 1:500 dilution. Before loading the samples on the gel, the protein amounts were quantified and adjusted accordingly. As loading control, an anti-γ-adaptin mAb was used (1:1000) on a 4% to 20% polyacrylamide gel.
DSCR1 was PCR amplified with primers DSCR1-EcoRI-Pro 5′, adding an extra proline and DSCR1-Stop-XhoI 3′, by using DSCR1 cDNA as a template and cloned into pGEX-KG. GST-DSCR1 was expressed and purified essentially as described previously.^23 Polyclonal rabbit anti-GST-DSCR1 was prepared by immunization with recombinant GST-DSCR1. Filtered crude serum was used for Western blots (1:400).

Cox-2, E-selectin, TF = assay: Real-time RT-PCR of inflammatory marker / VEGF target genes in HUVECs; details: activated endothelial cells, 4 hours of incubation
Description: as §1

DSCR1 [5] = assay: DSCR1 expression by real-time RT-PCR in HPAECs, HMVECs and HUAECs; details: HMVECs, HUAECs
Description: Cells and cell assays. Primary human endothelial cells were purchased from Clonetics (Santa Rosa, Calif.) and cultured according to the manufacturer's instructions. For gene calling experiments, human umbilical vein endothelial cells (HUVECs) were purchased from Clonetics (BioWhittaker, Walkersville, Md.) and maintained in endothelial growth medium (EBM-2) complemented with 5% fetal calf serum (FCS) following the manufacturer's instructions. Cells (1×107) were split at a cell density of 19 000 cell/cm2 and triplicate experiments for each condition were run in parallel. Twenty-four hours after plating the cells, cell were washed 3 times with phosphate-buffered saline (PBS) and media (Clonetics) containing either 0.1% bovine serum albumin (BSA) or 0.1% BSA plus VEGF (30 ng/mL) or 5% FCS. RNA isolation and reverse transcription-PCR (RT-PCR) analysis was performed as described.^21 For cell culture experiments, the following conditions were used: human (h) VEGF, 30 ng/mL; hTNF-α, 10 ng/mL; PMA, 200 ng/mL (Calbiochem, LaJolla, Calif.); CsA, 1 μM (Calbiochem); IO 5 μM (Sigma, St Louis, Mo.); thapsigargin, 50 nM (Sigma). […] 24 hours after serum starvation and dosing, cell were counted on a Coulter brand style cell counter. […]

[6] = GFP+ activated endothelial cells

| Molecule | DSCR1 mRNA levels (DSCR1 [3]) | DSCR1 protein levels (DSCR1 [4]) | DSCR1 expression levels (real-time RT-PCR) (DSCR1 [3]) | further results |
| --- | --- | --- | --- | --- |
| siDSCR1: siRNA to DSCR1 (NM_004414): pool of four in VEGF studies, AACGUAUGACAAGGACAUCAC in PMA/IO studies (one strand only stated, further chemistry not given here) | – | – | – | increase in NFAT activity relative to siControl (NFAT; HUVECs in presence of IO/PMA): 2 fold; increase in NFAT activity relative to siControl (NFAT; HUVECs in presence of VEGF): 3 fold; DSCR1 protein expression from cotransfected PRKN-DSCR1-FLAG (DSCR1 [1]; anti-Flag Western blot): complete absence; reduction in endogenous DSCR1 levels (DSCR1 [1]; rabbit polyclonal antiserum Western blot): 50% to 70%; ICAM-1 expression [2, 6]: not significantly affected; expression levels of TF, E-selectin and VCAM-1 [2, 6]: increase; magnitude of induction of inflammatory gene expression in VEGF-stimulated versus PMA/IO-stimulated cells ([2]; GFP+ endothelial cells): clearly below |
| TNF-α | significantly increased | unable to detect increased DSCR1 protein levels | – | – |
| C/C=C(/C)C(=O)O[C@H]1C(C)=C2[C@H]([C@@H]1OC(=O)CCCCCCC)[C@@](C)(OC(C)=O)C[C@H](OC(=O)CCC)[C@@]1(O)[C@H]2OC(=O)[C@@]1(C)O [thapsigargin, reference compound] | significantly increased | induction of DSCR1 | – | induction of COX2, E-selectin and TF mRNA (Cox-2, E-selectin, TF): significant induction |
| b-FGF: basic fibroblast growth factor, R&D Systems | – | no significant increase | did not alter DSCR1 levels significantly | – |
| ionomycine [reference compound] | significantly increased | – | – | – |
| B1 | – | – | failed to induce alterations in DSCR1 expression | – |
| B2 | – | – | equally potent to VEGF | DSCR1 expression (real-time RT-PCR) (DSCR1 [5]): increased levels of DSCR1 expression |
| B3 | – | – | failed to induce alterations in DSCR1 expression | – |

Source: patent publication US20060281680A1, “Methods and compositions for modulating vascular integrity” (GENENTECH, INC., priority 2005, published 2006)
